How the values were obtained:
[1] = Partition coefficient (logP); format: physicochemical; details: octanol/water
[2] = Lethal dose was reported; format: ADME
[3] = target: T1, Acetylcholinesterase (Torpedo californica, UniProt P04058)
Description: Inhibitory activity against acetylcholinesterase (AChE) from Torpedo californica (Reversible type of inhibition)

[4] = target: T1, Acetylcholinesterase; test: Inhibitory activity against acetylcholinesterase (AChE) from Torpedo californica (Irreversible type of inhibition); set-up: species or system Tetronarce californica

T1 sequence (P04058 whole entry): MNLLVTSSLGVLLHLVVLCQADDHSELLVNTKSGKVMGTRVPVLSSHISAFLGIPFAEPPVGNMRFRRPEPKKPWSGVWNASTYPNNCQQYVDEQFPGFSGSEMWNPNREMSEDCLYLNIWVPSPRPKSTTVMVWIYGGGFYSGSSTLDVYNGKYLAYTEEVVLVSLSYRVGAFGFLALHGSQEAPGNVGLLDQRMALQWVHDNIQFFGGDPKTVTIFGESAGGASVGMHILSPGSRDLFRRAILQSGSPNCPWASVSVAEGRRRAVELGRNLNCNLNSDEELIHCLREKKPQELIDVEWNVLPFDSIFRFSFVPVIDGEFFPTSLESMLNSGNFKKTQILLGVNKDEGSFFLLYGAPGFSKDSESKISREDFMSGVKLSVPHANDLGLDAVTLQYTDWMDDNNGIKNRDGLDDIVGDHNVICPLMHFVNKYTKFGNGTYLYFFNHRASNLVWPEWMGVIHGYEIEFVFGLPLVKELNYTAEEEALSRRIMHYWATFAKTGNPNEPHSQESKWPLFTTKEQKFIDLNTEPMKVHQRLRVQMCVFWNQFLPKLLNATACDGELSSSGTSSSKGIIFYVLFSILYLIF

O=C(O)c1cccc(N2C(=O)CCC2=O)c1
logP [1]: 1.81
LD50 [2]: > 1000 mg/kg
IC50 [3]: 33.4 nM

O=C(O)/C=C\C(=O)Nc1cccc(C(=O)O)c1
logP [1]: 1.09
IC50 [4]: 357 nM
LD50 [2]: > 1000 mg/kg

O=C(O)c1cccc(N2C(=O)C=CC2=O)c1
logP [1]: 1.48
IC50 [4]: 256 nM

O=C(O)CCC(=O)Nc1cccc(C(=O)O)c1
logP [1]: 1.41
LD50 [2]: > 1000 mg/kg
IC50 [3]: 92.5 nM
